In patent US9296746B2, “Heterocyclic compound” (TAKEDA PHARMACEUTICAL COMPANY LIMITED, priority 2012, dated 2016):

Tests used:
human CH24H = molecular target: T1, human CH24H (Homo sapiens, UniProt Q9Y6A2); assay: Measurement of CH24H inhibitory activity (24-HC produced from [14C] cholesterol by human CH24H lysate); assay type: biochemical; conditions: test compound 1 μM, [14C] cholesterol 15 μM, 37° C., 5 hr, read-out: Inhibitory Rate (%) in 1 μM
T1 construct: Using Full-Length Mammalian Gene Collection No. 4819975 (Invitrogen) as a template; made in house; host or cells: FreeStyle 293-F cells (transient transfection); cell lysate supernatant, not purified
T1 sequence (Q9Y6A2 whole entry): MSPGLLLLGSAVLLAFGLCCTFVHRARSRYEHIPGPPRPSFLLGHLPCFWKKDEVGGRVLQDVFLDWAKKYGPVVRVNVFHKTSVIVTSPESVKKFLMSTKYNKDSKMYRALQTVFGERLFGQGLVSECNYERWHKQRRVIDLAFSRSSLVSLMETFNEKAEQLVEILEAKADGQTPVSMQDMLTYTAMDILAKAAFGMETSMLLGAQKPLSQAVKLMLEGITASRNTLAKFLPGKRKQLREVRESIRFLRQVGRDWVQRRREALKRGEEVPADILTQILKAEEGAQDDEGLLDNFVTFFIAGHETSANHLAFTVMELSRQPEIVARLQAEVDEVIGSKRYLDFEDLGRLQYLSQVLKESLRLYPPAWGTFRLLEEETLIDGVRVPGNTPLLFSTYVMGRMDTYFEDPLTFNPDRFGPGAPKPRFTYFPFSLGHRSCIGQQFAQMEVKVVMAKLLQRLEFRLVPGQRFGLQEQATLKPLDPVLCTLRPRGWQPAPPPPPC
Experimental: The expression of human CH24H was performed using FreeStyle 293 Expression System (Invitrogen). According to the manual attached to FreeStyle 293 Expression System and using the plasmid DNA for human CH24H expression (pcDNA3.1(+)/hCH24H) constructed in Experimental Example 1, a transient expression using FreeStyle 293-F cell was performed. After transfection, the cells were cultured at 37° C., 8% CO2 with shaking at 125 rpm for 2 days. The cells were collected by centrifugation, and suspended in a suspension buffer (100 mM potassium phosphate (pH 7.4), 0.1 mM EDTA, 1 mM DTT, 20% Glycerol). The suspended product was disrupted by a polytron homogenizer (manufactured by Kinematica), and centrifuged at 9000×g for 10 min, and the supernatant was collected. The collected supernatant was cryopreserved (−80° C.) as a human CH24H lysate standard product.
For the measurement of CH24H inhibitory activity, using the human CH24H lysate prepared in Experimental Example 2, the amount of 24-HC produced from cholesterol by catalytic activity of CH24H was measured in the presence of a test compound, and compared with that measured in the absence of the test compound. That is, a test compound solution at various concentrations was mixed with a reaction buffer (50 mM potassium phosphate containing 0.1% BSA and Complete, EDTA-free, pH 7.4) and human CH24H lysate. Then, [^14C] cholesterol (53 mCi/mmol specific activity, 15 μM) was added, and CH24H reaction was performed at 37° C. for 5 hr. After completion of the reaction, a quenching solution consisting of chloroform/methanol/distilled water (2:2:1 v/v) was added, and the resulting 24-HC was extracted by shaking. The extract was applied to silica gel thin layer chromatography (ethyl acetate:toluene=4:6), and the obtained ^14C-24HC fraction was measured with BAS2500 (Fujifilm Corporation).
The inhibitory rate (%) was calculated from the ratio of radioactivity in the presence of a test compound relative to the radioactivity in the absence of the test compound.

[1] = test system: APP transgenic mouse (Tg2576); assay: Novel object recognition test using an APP transgenic mouse (Tg2576); assay type: in vivo, Tg2576 mice; conditions: 3 mg/mL suspension at 10 mL/kg orally once a day for 6 weeks
Experimental: Animals used were 6-week-old Tg2576 mice and their wild-type mice (10 mice/group). A test compound was suspended in a 0.5% aqueous methyl cellulose [133-14255 WAKO] solution (3 mg/mL). The body weight of the mice was measured, and the solution was forcibly administered orally and repeatedly at 10 mL/kg once a day for 6 weeks. Then, a novel object recognition test was performed as follows. On the day before acquisition trial, the mice kept in the same cage were put in an observation box in which the illuminance was set to 300 lx, and habituated for 30 min. After the habituation, a compound was orally administered. On the next day, the mice were put, as an acquisition trial, in an observation box in which two same objects were placed, and the number and duration of contacts to the objects were measured for 5 min under 300 lx. A compound was orally administered after the measurement. The day after the acquisition trial, the one object was replaced with a novel object, and the number and duration of contacts to each of the object were measured for 5 min. A metal cylinder and ceramic triangular pyramid were used in this test. A control group (test compound-untreated group) and a control group in wild-type mice were used for comparison. […]

Compound	inhibition at 1 µM (human CH24H)	exploration Rate (%) of Novel Object, duration of contacts [1]	exploration Rate (%) of Novel Object, number of contacts [1]
O=C(c1cnc2c(-c3cnco3)cc(C(F)(F)F)cn12)N1C2CCC1COC2 [Example 85, 3-oxa-8-azabicyclo[3.2.1]oct-8-yl(8-(1,3-oxazol-5-yl)-6-(trifluoromethyl)imidazo[1,2-a]pyridin-3-yl)methanone]	88%	61.8%	54.4%
O=C(c1cnc2c(-c3cnco3)cc(C(F)(F)F)cn12)N1C2COCC1COC2 [Example 176, 3,7-dioxa-9-azabicyclo[3.3.1]non-9-yl(8-(1,3-oxazol-5-yl)-6-(trifluoromethyl)imidazo[1,2-a]pyridin-3-yl)methanone]	94%		
O=C(c1cnc2c(-c3cnco3)cc(C(F)(F)F)cn12)N1CC(F)C1 [Example 177, (3-fluoroazetidin-1-yl)(8-(1,3-oxazol-5-yl)-6-(trifluoromethyl)imidazo[1,2-a]pyridin-3-yl)methanone]	86%		
